Counter-ions that a name gives are not always drawn.
What was measured:
HUVECs [1] = assay: Tube formation (tubulogenesis) assay in HUVECs, 18 h; assay type: cell-based, human; details: for minimal effective concentration: Homo sapiens, HUVEC, 18 h; for huvec.mtl.18hr / huvec.tlps.18hr / huvec.tta.18hr / huvec.ttl.18hr: HUVECs tube formation, 0.00 µM = 100.00
In short: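 HUVECs (passage 1–5) seeded on reduced-growth-factor basement membrane and exposed to compounds overnight at 37°C, 5% CO2, in 2× maintenance medium with 12.5 ng/mL VEGF; 0.5% DMSO vehicle. Calcein AM-stained tube networks imaged and analysed; vehicle-normalized readouts fit to four-parameter logistic, POD set at one SD of vehicle means.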

HUVECs [2] = assay: High-content imaging cytotoxicity in HUVECs, 24 h; assay type: cell-based, human; details: 24 hr; for minimal effective concentration: Homo sapiens, HUVEC, 24 h; for huvec.mito.24hr / huvec.mitoint.24hr / huvec.nma.24hr: HUVECs, 0.00 µM = 100.00
In short: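 Point-of-departure values come from four-parameter logistic fits of vehicle-normalized (0.5% DMSO) imaging readouts, cutoff one SD of vehicle means, 100μM where no concentration–response. Cells: HUVEC monolayers, passages 1–5, treated 24 h at 37°C, 5% CO2, then Hoechst 33342/MitoTracker Orange/calcein AM stained, imaged at 10×.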

[3] = tube formation mtl, read-out: POD huvec.mtl.18hr
[4] = tube formation tlps, read-out: POD huvec.tlps.18hr
[5] = tube formation tta, read-out: POD huvec.tta.18hr
[6] = tube formation ttl, read-out: POD huvec.ttl.18hr
[7] = cyto, read-out: POD huvec.cyto.24hr
[8] = mito, read-out: POD huvec.mito.24hr
[9] = mitoint, read-out: POD huvec.mitoint.24hr
[10] = nma, read-out: POD huvec.nma.24hr
[11] = tc, read-out: POD huvec.tc.24hr

SMILES: COc1ccc(-c2cccc(Cl)c2)cc1Cl [4-OMe-PCB 11, 4-methoxy-3,3′-dichlorobiphenyl]
- minimal effective concentration (HUVECs [1]; [3]): 9.33 µM
- minimal effective concentration (HUVECs [1]; [4]): 25.8 µM
- minimal effective concentration (HUVECs [1]; [5]): 100 µM
- minimal effective concentration (HUVECs [1]; [6]): 1.22 µM
- minimal effective concentration (HUVECs [2]; [7]): 7.59 µM
- minimal effective concentration (HUVECs [2]; [8]): 6.19 µM
- minimal effective concentration (HUVECs [2]; [9]): 16 µM
- minimal effective concentration (HUVECs [2]; [10]): 6.39 µM
- minimal effective concentration (HUVECs [2]; [11]): 7.59 µM

SMILES: Clc1ccc(Cl)c(-c2c(Cl)ccc(Cl)c2Cl)c1Cl [(-)-PCB 136, 2,2′,3,3′,6,6′-hexachlorobiphenyl]
- huvec.mtl.18hr (HUVECs [1]; concentration 0.01 µM): 89.52
- huvec.tlps.18hr (HUVECs [1]; concentration 0.01 µM): 87.45
- huvec.tta.18hr (HUVECs [1]; concentration 0.01 µM): 86.96
- huvec.ttl.18hr (HUVECs [1]; concentration 0.01 µM): 85.21
- huvec.mtl.18hr (HUVECs [1]; concentration 0.10 µM): 105.15
- huvec.tlps.18hr (HUVECs [1]; concentration 0.10 µM): 104.95
- huvec.tta.18hr (HUVECs [1]; concentration 0.10 µM): 96.50
- huvec.ttl.18hr (HUVECs [1]; concentration 0.10 µM): 89.39
- huvec.mtl.18hr (HUVECs [1]; concentration 1.00 µM): 101.33
- huvec.tlps.18hr (HUVECs [1]; concentration 1.00 µM): 99.50
- huvec.tta.18hr (HUVECs [1]; concentration 1.00 µM): 114.69
- huvec.ttl.18hr (HUVECs [1]; concentration 1.00 µM): 103.47
- huvec.mtl.18hr (HUVECs [1]; concentration 10.00 µM): 94.11
- huvec.tlps.18hr (HUVECs [1]; concentration 10.00 µM): 92.84
- huvec.tta.18hr (HUVECs [1]; concentration 10.00 µM): 112.35
- huvec.ttl.18hr (HUVECs [1]; concentration 10.00 µM): 101.40
- huvec.mtl.18hr (HUVECs [1]; concentration 100.00 µM): 75.12
- huvec.tlps.18hr (HUVECs [1]; concentration 100.00 µM): 53.61
- huvec.tta.18hr (HUVECs [1]; concentration 100.00 µM): 117.52
- huvec.ttl.18hr (HUVECs [1]; concentration 100.00 µM): 95.13
- huvec.mito.24hr (HUVECs [2]; concentration 0.01 µM): 77.23
- huvec.mitoint.24hr (HUVECs [2]; concentration 0.01 µM): 84.43
- huvec.nma.24hr (HUVECs [2]; concentration 0.01 µM): 98.77
- huvec.mito.24hr (HUVECs [2]; concentration 0.10 µM): 130.40
- huvec.mitoint.24hr (HUVECs [2]; concentration 0.10 µM): 73.90
- huvec.nma.24hr (HUVECs [2]; concentration 0.10 µM): 86.45
- huvec.mito.24hr (HUVECs [2]; concentration 1.00 µM): 92.50
- huvec.mitoint.24hr (HUVECs [2]; concentration 1.00 µM): 88.05
- huvec.nma.24hr (HUVECs [2]; concentration 1.00 µM): 99.68
- huvec.mito.24hr (HUVECs [2]; concentration 10.00 µM): 30.92
- huvec.mitoint.24hr (HUVECs [2]; concentration 10.00 µM): 10.83
- huvec.nma.24hr (HUVECs [2]; concentration 10.00 µM): 50.44
- huvec.mito.24hr (HUVECs [2]; concentration 100.00 µM): 29.50
- huvec.mitoint.24hr (HUVECs [2]; concentration 100.00 µM): 15.66
- huvec.nma.24hr (HUVECs [2]; concentration 100.00 µM): 72.40

SMILES: O=S(=O)(O)Oc1ccc(-c2cccc(Cl)c2)cc1Cl [4-PCB 11 sulfate]
- minimal effective concentration (HUVECs [1]; [3]): 14.3 µM
- minimal effective concentration (HUVECs [1]; [4]): 27.2 µM
- minimal effective concentration (HUVECs [1]; [5]): 100 µM
- minimal effective concentration (HUVECs [1]; [6]): 100 µM
- minimal effective concentration (HUVECs [2]; [7]): 48.8 µM
- minimal effective concentration (HUVECs [2]; [8]): 45.1 µM
- minimal effective concentration (HUVECs [2]; [9]): 10.8 µM
- minimal effective concentration (HUVECs [2]; [10]): 2.98 µM
- minimal effective concentration (HUVECs [2]; [11]): 48.8 µM

From paper PMC7377239, “Cardiovascular Effects of Polychlorinated Biphenyls and Their Major Metabolites” (Environmental Health Perspectives, 2020)
